Here are results for two compounds from publication PMC5029682, “Discovery and characterization of Isofistularin-3, a marine brominated alkaloid, as a new DNA demethylating agent inducing cell cycle arrest and sensitization to TRAIL in cancer cells” (Oncotarget, 2016).

Assay [1] addresses T1, DNMT1 (Homo sapiens, UniProt P26358). Description: in vitro DNMT activity/inhibition assay with purified DNMT1, positive control. The format is biochemical.
In assay [2] the target is T1, DNMT1. The assay is described as follows: in vitro DNMT activity/inhibition assay (colorimetric, Active Motif) with purified DNMT1. The format is biochemical.

T1 sequence (P26358 whole entry): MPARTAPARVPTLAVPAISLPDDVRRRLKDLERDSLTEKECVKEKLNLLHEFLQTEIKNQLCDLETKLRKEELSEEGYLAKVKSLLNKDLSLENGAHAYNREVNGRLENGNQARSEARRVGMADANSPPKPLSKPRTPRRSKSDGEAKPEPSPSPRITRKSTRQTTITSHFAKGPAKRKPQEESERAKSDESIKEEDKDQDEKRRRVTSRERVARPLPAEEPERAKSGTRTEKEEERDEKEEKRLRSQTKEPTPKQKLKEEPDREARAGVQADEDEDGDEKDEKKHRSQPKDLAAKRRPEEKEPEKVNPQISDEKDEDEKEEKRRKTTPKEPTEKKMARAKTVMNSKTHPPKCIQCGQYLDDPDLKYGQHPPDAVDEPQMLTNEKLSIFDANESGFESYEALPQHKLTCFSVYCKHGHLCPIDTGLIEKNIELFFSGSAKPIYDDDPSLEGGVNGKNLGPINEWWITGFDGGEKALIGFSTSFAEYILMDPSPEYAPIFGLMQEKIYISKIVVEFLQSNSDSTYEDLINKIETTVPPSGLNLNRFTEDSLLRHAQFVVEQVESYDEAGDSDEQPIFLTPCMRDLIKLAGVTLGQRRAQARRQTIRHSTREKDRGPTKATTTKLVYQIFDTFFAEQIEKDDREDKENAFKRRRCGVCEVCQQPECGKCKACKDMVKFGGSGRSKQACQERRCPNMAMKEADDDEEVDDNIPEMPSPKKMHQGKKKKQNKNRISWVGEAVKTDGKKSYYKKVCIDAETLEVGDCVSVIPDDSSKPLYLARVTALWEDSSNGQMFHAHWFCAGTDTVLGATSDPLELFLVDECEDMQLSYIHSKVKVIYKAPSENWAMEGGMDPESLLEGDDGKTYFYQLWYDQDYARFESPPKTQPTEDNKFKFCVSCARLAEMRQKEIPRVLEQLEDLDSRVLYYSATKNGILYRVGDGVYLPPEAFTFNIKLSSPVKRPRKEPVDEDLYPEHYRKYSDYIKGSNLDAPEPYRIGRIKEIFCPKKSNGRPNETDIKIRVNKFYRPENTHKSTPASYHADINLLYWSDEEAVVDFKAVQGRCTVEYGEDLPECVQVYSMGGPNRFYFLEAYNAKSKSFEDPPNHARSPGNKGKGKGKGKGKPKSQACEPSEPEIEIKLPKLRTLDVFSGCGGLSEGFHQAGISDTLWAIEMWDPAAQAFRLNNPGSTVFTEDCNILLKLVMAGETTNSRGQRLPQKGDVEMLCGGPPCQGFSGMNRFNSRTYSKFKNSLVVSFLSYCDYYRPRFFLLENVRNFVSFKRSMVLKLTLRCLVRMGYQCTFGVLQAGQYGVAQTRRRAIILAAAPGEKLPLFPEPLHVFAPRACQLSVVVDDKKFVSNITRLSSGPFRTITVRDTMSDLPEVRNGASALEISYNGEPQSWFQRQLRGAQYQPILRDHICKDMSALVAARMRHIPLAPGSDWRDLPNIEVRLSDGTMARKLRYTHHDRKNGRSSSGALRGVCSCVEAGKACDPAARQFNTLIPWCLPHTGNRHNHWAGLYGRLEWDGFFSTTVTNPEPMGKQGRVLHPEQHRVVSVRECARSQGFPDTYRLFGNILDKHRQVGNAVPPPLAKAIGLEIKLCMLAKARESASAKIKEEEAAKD

For `O=C(O[C@@H]1Cc2c(O)cc(O)cc2O[C@@H]1c1cc(O)c(O)c(O)c1)c1cc(O)c(O)c(O)c1` [EGCG, Epigallocatechin gallate], the “in vitro DNMT activity/inhibition assay with purified DNMT1, positive control” value in assay [1] is “Green tea polyphenol EGCG was used as a positive control for in vitro DNMT1 inhibition”.

What is called IC50 is the point on the concentration scale where inhibition reaches its midpoint. The low end stands for greater potency, the high end for weaker potency. `COC1=C(Br)[C@H](O)[C@@]2(C=C1Br)CC(C(=O)NCC(O)COc1c(Br)cc(C(O)CNC(=O)C3=NO[C@]4(C=C(Br)C(OC)=C(Br)[C@@H]4O)C3)cc1Br)=NO2` (some centres unmarked) [Iso-3, Isofistularin-3] displayed an IC50 in assay [2] of 13.5 ± 5.4 µM.
